# Assay results taken from paper PMC6471591, “Preparation of Sesquiterpene Lactone Derivatives: Cytotoxic Activity and Selectivity of Action” (Molecules, 2019).
# Like-named read-outs stand apart in the source and are kept apart here.
# How the values were obtained:
# HBL100 cells [1] = test: Antiproliferative SRB assay (NCI protocol), 48 h; assay type: cell-based, human; conditions: splenocyte CC50 versus HBL100 GI50
# SW1573 cells = test: Antiproliferative SRB assay (NCI protocol), 48 h; assay type: cell-based, human; conditions: for GI50: Homo sapiens, read-out: 50% growth inhibition (GI50) ± SD, SW1573; for Selectivity Index, SW1573: splenocyte CC50 versus SW1573 GI50
# Method: (§1) In vitro antiproliferative activity was evaluated using the protocol of the National Cancer Institute (NCI) after 48 h of drug exposure using the sulforhodamine B (SRB) assay. […] We cannot discard that increasing lipophilicity may well result in an increase in cytotoxicity in vitro.
# (§2) The following human solid tumor cell lines were used in this study: HBL-100 (breast), HeLa (cervix), SW1573 (non-small cell lung), T-47D (breast), A549 (lung), and WiDr (colon). Cells were maintained in 25 cm^2 culture flasks in RPMI 1640 supplemented with 5% heat-inactivated fetal calf serum and 2 mM L-glutamine in a 37 °C, 5% CO2, 95% humidified air incubator. Exponentially growing cells were trypsinized and resuspended in antibiotic containing medium (100 units penicillin G and 0.1 mg of streptomycin per mL). Single-cell suspensions displaying >97% viability by trypan blue dye exclusion test were subsequently counted. After counting, dilutions were made to give the appropriate cell densities for inoculation onto 96-well microtiter plates. Cells were inoculated in a volume of 100 μL per well at densities of 20,000 (WiDr), 15,000 (T-47D and A549), and 10,000 (HeLa, SW1573, and HBL-100) cells per well, based on their doubling times.
# (§3) Chemosensitivity tests were performed using the SRB assay of the NCI with slight modifications. Briefly, pure compounds were initially dissolved in DMSO at 400 times the desired final maximum test concentration. Control cells were exposed to an equivalent concentration of DMSO (0.25% v/v, negative control). Each agent was tested in triplicate at different dilutions in the range 1–100 μM. Drug treatment started on day 1 after plating. Drug incubation periods were 48 h, after which cells were precipitated with 25 μL of ice-cold 50% (w/v) trichloroacetic acid and fixed for 60 min at 4 °C. Then, the SRB assay was performed. Optical density (OD) of each well was measured at 492 nm, using BioTek’s PowerWave XS Absorbance Microplate Reader (Highland Park, Winooski, VT, USA). Values were corrected for background OD from wells containing only culture medium. The percentage growth (PG) was calculated with respect to untreated control cells (C) at each level of drug concentrations based on the difference in OD at the start time (T0) and at the end of drug exposure (T), according to NCI formulas. Therefore, if T is greater than or equal to T0, the calculation is 100 × [(T–T0)/(C–T0)]. If T is lower than T0, denoting cell death, the calculation is 100 × [(T–T0)/(T0)]. The effect is defined as the growth percentage, where 50% growth inhibition (GI50) represents the concentration at which PG is +50. Based on these calculations, a PG value of 0 corresponds to the number of cells present at the beginning of drug exposure, while negative PG values denote net cell death.
# WiDr cells = test: Antiproliferative SRB assay (NCI protocol), 48 h; assay type: cell-based, human; conditions: for GI50: Homo sapiens, read-out: 50% growth inhibition (GI50) ± SD, WiDr; for Selectivity Index, WiDr: splenocyte CC50 versus WiDr GI50
# Method: as §1, §2, §3
# T47-D cells = test: Antiproliferative SRB assay (NCI protocol), 48 h; assay type: cell-based, human; conditions: for GI50: Homo sapiens, T47D, read-out: 50% growth inhibition (GI50) ± SD, T47-D; for Selectivity Index, T47-D: splenocyte CC50 versus T47-D GI50
# Method: as §1, §2, §3
# HeLa cells [2] = test: Antiproliferative SRB assay (NCI protocol), 48 h; assay type: cell-based, human; conditions: splenocyte CC50 versus HeLa GI50
# A549 cells [3] = test: Antiproliferative SRB assay (NCI protocol), 48 h; assay type: cell-based, human; conditions: splenocyte CC50 versus A549 GI50
# HeLa cells [4] = test: Antiproliferative SRB assay (NCI protocol), 48 h; assay type: cell-based; conditions: Homo sapiens, read-out: 50% growth inhibition (GI50) ± SD, HeLa
# Method: as §1, §2, §3
# A549 cells [5] = test: Antiproliferative SRB assay (NCI protocol), 48 h; assay type: cell-based; conditions: Homo sapiens, read-out: 50% growth inhibition (GI50) ± SD, A549
# Method: as §1, §2, §3
# HBL100 cells [6] = test: Antiproliferative SRB assay (NCI protocol), 48 h; assay type: cell-based; conditions: Homo sapiens, read-out: 50% growth inhibition (GI50) ± SD, HBL100
# Method: as §1, §2, §3
# [7] = Cytotoxicity on primary cell culture (propidium iodide, flow cytometry); assay type: cell-based
# Method: The cytotoxicity of the sesquiterpene lactones and its derivatives was evaluated using mouse splenocytes. […] Cumanin derivatives (4–11) have shown CC50 values and selectivity indexes higher than natural compound 1. […] The incorporation of two triazole groups in cumanin (1) reduced cytotoxicity on normal cells and improved selectivity against tumor cell lines.
# In a 96-well plate, spleen cells from Balb/c mouse (1.5 × 10^5) were incubated with different drug dilutions (200, 100, 50, 10, and 5 μg/mL) in RPMI medium containing 10% fetal calf serum. After 48 h of incubation at 37 °C (5% CO2), cells were harvested, washed once with PBS, and stained with 2.5 μg/mL propidium iodide (PI) for 5 min at room temperature. Subsequently, cell death was assessed by flow cytometry using a BD FACSaria II cytometer. Cells incubated only with a drug vehicle were used as a 100% viability control and death percentage was calculated according to the following formula: Death(%)=[1−(%PI^−cells)drug−treated/(%PI^−cells)100% viability control]×100.
# Then the concentration capable of causing cell death in 50% of splenocytes (CC50) was determined using a non-linear regression approach.
# [8] = system: human solid tumor cell lines (A549, HBL-100, HeLa, SW1573, T-47D, WiDr); test: Antiproliferative SRB assay, whole panel of tumor cell lines; assay type: cell-based; conditions: tumor cell line panel, compared to cumanin (1)
# Method: as §1, §2, §3
# [9] = SW1573 (non-small cell lung), SRB, 48 h drug exposure
# [10] = WiDr (colon), SRB, 48 h drug exposure
# [11] = T47-D (breast), SRB, 48 h drug exposure
# [12] = HeLa (cervix), SRB, 48 h drug exposure
# [13] = A549 (lung), SRB, 48 h drug exposure
# [14] = HBL-100, HBL100 (breast), SRB, 48 h drug exposure
# [15] = Balb/c mouse spleen cells, 48 h incubation, PI staining, read-out: CC50 ± SD, splenocytes (concentration that causes 50% cell death)
Structure (SMILES),"Selectivity Index, HBL100 (HBL100 cells [1])",GI50 (SW1573 cells; [9]),"Selectivity Index, SW1573 (SW1573 cells)",GI50 (WiDr cells; [10]),"Selectivity Index, WiDr (WiDr cells)",GI50 (T47-D cells; [11]),"Selectivity Index, T47-D (T47-D cells)","Selectivity Index, HeLa (HeLa cells [2])","Selectivity Index, A549 (A549 cells [3])",GI50 (HeLa cells [4]; [12]),GI50 (A549 cells [5]; [13]),GI50 (HBL100 cells [6]; [14]),other results
"C=C1C(=O)OC2CC(C)C3CC(O)C(O)C3(C)CC12 (centres unmarked) [Compound 1, cumanin]",1.4,14 µM,2.1,36 µM,0.8,30 µM,1.0,1.5,1.5,19 µM,19 µM,21 µM,
"C=C1C(=O)O[C@@H]2C[C@@H](C)[C@@H]3C=CC(=O)[C@@]3(C)[C@@H](O)[C@H]12 [Compound 2, helenalin]",0.4,,0.5,,0.4,,0.4,0.7,0.5,,,,"CC50 at 48 h [7, 15]: 1.2 µM; GI50 (SW1573 cells; SW1573, 48 h): 2.2 µM; GI50 (WiDr cells; WiDr, 48 h): 2.7 µM; GI50 (T47-D cells; 48 h): 2.9 µM; GI50 (HeLa cells [4]; HeLa, 48 h): 1.7 µM; GI50 (A549 cells [5]; A549, 48 h): 2.3 µM; GI50 (HBL100 cells [6]; HBL-100, 48 h): 2.8 µM"
"C=C1C(=O)O[C@@H]2[C@H]1CC[C@H](C)[C@@]1(O)C=CC(=O)[C@@]21C [Compound 3, hymenin]",0.3,6.4 µM,0.7,18 µM,0.2,20 µM,0.2,0.3,0.4,14 µM,9.7 µM,17 µM,"CC50 at 48 h ([7]; Balb/c, mouse): 4.4 µM"
C=C1C(=O)O[C@@H]2C[C@H](C)[C@@H]3C[C@H](OC(C)=O)[C@H](OC(C)=O)[C@@]3(C)C[C@H]12 [Compound 4],10.5,11 µM,21.9,27 µM,8.9,26 µM,9.3,15.0,10.0,16 µM,24 µM,23 µM,antiproliferative activity in words [8]: moderate activity
C=C1C(=O)O[C@@H]2C[C@H](C)[C@@H]3C[C@H](O[Si](C)(C)C)[C@H](O[Si](C)(C)C)[C@@]3(C)C[C@H]12 [Compound 5],18.4,1.8 µM,36.9,2.2 µM,30.2,1.9 µM,34.9,22.9,27.7,2.9 µM,2.4 µM,3.6 µM,
C=C1C(=O)O[C@@H]2C[C@H](C)[C@@H]3C[C@H](O[Si](C)(C)C(C)C)[C@H](O[Si](C)(C)C(C)C)[C@@]3(C)C[C@H]12 [Compound 6],39.9,1.2 µM,76.5,2.4 µM,38.2,2.2 µM,41.7,70.6,76.5,1.3 µM,1.2 µM,2.3 µM,"CC50 at 48 h ([7]; Balb/c, mouse): 91.8 µM"
C=C1C(=O)O[C@@H]2C[C@H](C)[C@@H]3C[C@H](O[Si](c4ccccc4)(c4ccccc4)C(C)(C)C)[C@H](O)[C@@]3(C)C[C@H]12 [Compound 7],38.6,1.5 µM,95.1,3.1 µM,46.0,3.4 µM,42.0,71.3,89.2,2 µM,1.6 µM,3.7 µM,
C#CCOC1CC2C(C)CC3OC(=O)C(=C)C3CC2(C)C1O (centres unmarked) [Compound 8],10.6,28 µM,6.4,7.2 µM,25.1,24 µM,7.5,9.5,10.0,19 µM,18 µM,17 µM,antiproliferative activity in words [8]: moderate activity
C=C1C(=O)OC2CC(C)C3CC(OCc4cn(Cc5ccccc5)nn4)C(OCc4cn(Cc5ccccc5)nn4)C3(C)CC12 (centres unmarked) [Compound 11],81.9,4.7 µM,111.5,2.3 µM,227.9,9.7 µM,54.0,88.8,141.6,5.9 µM,3.7 µM,6.4 µM,"CC50 at 48 h ([7]; primary mouse splenocytes (spleen cells), Balb/c mouse spleen cells, 48 h incubation, PI staining, read-out: CC50 ± SD, splenocytes (concentration that causes 50% cell death)): 524 µM"
C=C1C(=O)O[C@@H]2C[C@@H](C)[C@@H]3C=CC(=O)[C@@]3(C)[C@@H](OC(C)=O)[C@H]12 [Compound 12],0.1,4.7 µM,0.1,,,1.6 µM,0.2,,,,,3.6 µM,"CC50 [7, 15]: 400 nM"
C=C1C(=O)O[C@@H]2[C@H]1CC[C@H](C)[C@@]1(O[Si](C)(C)C)C=CC(=O)[C@@]21C [Compound 15],0.5,2.4 µM,0.9,6.8 µM,0.3,4.2 µM,0.5,0.7,0.7,3.3 µM,3.4 µM,4.6 µM,"CC50 at 48 h ([7]; Balb/c, mouse): 2.3 µM"
